In article PMC8632988, “Inhibition of SYK and cSrc kinases can protect bone and cartilage in preclinical models of osteoarthritis and rheumatoid arthritis” (Scientific Reports, 2021):
“And” between values parts separate entries of the source, which are not always exact repeats. Identical values can stand only once.

Legend:
Assay in all cases: Kinase selectivity profile assay
Assay type in all cases: biochemical
ALK5/TGFBR1 = target: T1, ALK5/TGFBR1 (Homo sapiens, UniProt P36897); settings: 500 nM; relative to DMSO; read-out: Residual enzymatic activity
T1 construct: purchased Reaction Biology Corporation
In short: (§1)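 Radiometric kinase assay run by a standard protocol. Unbound phosphate was removed by washing filters in phosphoric acid, and product radioactivity gave percent remaining kinase activity versus DMSO vehicle reactions. Run in duplicate.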

Aurora C = target: T2, Aurora C (Homo sapiens, UniProt Q9UQB9); settings: 500 nM; relative to DMSO; read-out: Residual enzymatic activity
T2 construct: purchased Reaction Biology Corporation
In short: as §1

BTK = target: T3, BTK (Homo sapiens, UniProt Q06187); settings: 500 nM; relative to DMSO; read-out: Residual enzymatic activity
T3 construct: purchased Reaction Biology Corporation
In short: as §1

CDC7/DBF4 = target: T4, CDC7/DBF4 (Homo sapiens, UniProt O00311); settings: 500 nM; relative to DMSO; read-out: Residual enzymatic activity
T4 construct: purchased Reaction Biology Corporation
In short: as §1

CK1g1 = target: T5, CK1g1 (Homo sapiens, UniProt Q9HCP0); settings: 500 nM; relative to DMSO; read-out: Residual enzymatic activity
T5 construct: purchased Reaction Biology Corporation
In short: as §1

DRAK1/STK17A = target: T6, DRAK1/STK17A (Homo sapiens, UniProt Q9UEE5); settings: 500 nM; relative to DMSO; read-out: Residual enzymatic activity
T6 construct: purchased Reaction Biology Corporation
In short: as §1

DYRK3 = target: T7, DYRK3 (Homo sapiens, UniProt O43781); settings: 500 nM; relative to DMSO; read-out: Residual enzymatic activity
T7 construct: purchased Reaction Biology Corporation
In short: as §1

EPHB2 = target: T8, EPHB2 (Homo sapiens, UniProt P29323); settings: 500 nM, relative to DMSO
T8 construct: purchased Reaction Biology Corporation
In short: as §1

FLT3 = target: T9, FLT3 (Homo sapiens, UniProt P36888); settings: for remaining activity at 0.5 µM: 500 nM, relative to DMSO, read-out: Residual enzymatic activity
T9 construct: purchased Reaction Biology Corporation (assay service)
T9 sequence (P36888 27-993): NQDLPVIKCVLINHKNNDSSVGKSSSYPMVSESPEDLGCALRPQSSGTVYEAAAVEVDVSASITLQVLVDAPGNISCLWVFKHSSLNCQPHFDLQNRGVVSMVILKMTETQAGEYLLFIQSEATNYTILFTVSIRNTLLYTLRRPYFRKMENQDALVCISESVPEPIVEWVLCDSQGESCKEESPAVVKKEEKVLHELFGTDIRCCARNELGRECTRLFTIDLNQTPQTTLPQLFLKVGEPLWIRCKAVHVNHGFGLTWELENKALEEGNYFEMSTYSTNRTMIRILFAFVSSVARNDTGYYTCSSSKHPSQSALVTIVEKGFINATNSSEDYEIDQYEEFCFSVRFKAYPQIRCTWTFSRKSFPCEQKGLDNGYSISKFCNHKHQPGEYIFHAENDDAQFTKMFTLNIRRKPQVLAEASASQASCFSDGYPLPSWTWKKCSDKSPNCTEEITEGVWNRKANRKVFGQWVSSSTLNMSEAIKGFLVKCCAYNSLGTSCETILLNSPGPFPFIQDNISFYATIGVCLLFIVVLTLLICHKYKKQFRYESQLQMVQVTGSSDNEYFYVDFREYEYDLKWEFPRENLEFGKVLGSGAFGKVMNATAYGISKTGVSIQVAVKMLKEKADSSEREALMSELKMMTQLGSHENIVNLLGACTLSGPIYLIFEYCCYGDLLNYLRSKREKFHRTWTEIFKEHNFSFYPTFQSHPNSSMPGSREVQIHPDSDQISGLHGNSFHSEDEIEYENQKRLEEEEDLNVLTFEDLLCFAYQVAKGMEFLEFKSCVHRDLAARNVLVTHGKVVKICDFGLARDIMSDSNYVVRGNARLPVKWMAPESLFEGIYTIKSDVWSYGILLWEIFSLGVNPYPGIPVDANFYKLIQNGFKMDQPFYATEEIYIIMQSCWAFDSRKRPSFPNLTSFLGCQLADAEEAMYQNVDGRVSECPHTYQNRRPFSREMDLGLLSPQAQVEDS
In short: as §1

HCK = target: T10, HCK (Homo sapiens, UniProt P08631); settings: for remaining activity at 0.5 µM: 500 nM, relative to DMSO, read-out: Residual enzymatic activity
T10 construct: purchased Reaction Biology Corporation (assay service)
In short: as §1

LIMK1 = target: T11, LIMK1 (Homo sapiens, UniProt P53667); settings: for remaining activity at 0.5 µM: 500 nM, relative to DMSO, read-out: Residual enzymatic activity
T11 construct: purchased Reaction Biology Corporation (assay service)
In short: as §1

MEK1 = target: T12, MEK1 (Homo sapiens, UniProt Q02750); settings: 500 nM, relative to DMSO; for remaining activity at 0.5 µM: read-out: Residual enzymatic activity
T12 construct: purchased Reaction Biology Corporation
In short: as §1

MEKK3 = target: T13, MEKK3 (Homo sapiens, UniProt Q99759); settings: 500 nM; relative to DMSO; read-out: Residual enzymatic activity
T13 construct: purchased Reaction Biology Corporation
In short: as §1

MKK4 = target: T14, MKK4 (Homo sapiens, UniProt P45985); settings: 500 nM; relative to DMSO; read-out: Residual enzymatic activity
T14 construct: purchased Reaction Biology Corporation
In short: as §1

NEK4 = target: T15, NEK4 (Homo sapiens, UniProt P51957); settings: 500 nM; relative to DMSO; read-out: Residual enzymatic activity
T15 construct: purchased Reaction Biology Corporation
In short: as §1

P38b/MAPK11 = target: T16, P38b/MAPK11 (Homo sapiens, UniProt Q15759); settings: 500 nM; relative to DMSO; read-out: Residual enzymatic activity
T16 construct: purchased Reaction Biology Corporation
In short: as §1

PKCa = target: T17, PKCa (Homo sapiens, UniProt P17252); settings: 500 nM; relative to DMSO; read-out: Residual enzymatic activity
T17 construct: purchased Reaction Biology Corporation
In short: as §1

PKG1a = target: T18, PKG1a (Homo sapiens, UniProt Q13976); settings: 500 nM; relative to DMSO; read-out: Residual enzymatic activity
T18 construct: purchased Reaction Biology Corporation
In short: as §1

PRKX = target: T19, PRKX (Homo sapiens, UniProt P51817); settings: 500 nM; relative to DMSO; read-out: Residual enzymatic activity
T19 construct: purchased Reaction Biology Corporation
In short: as §1

RAF1 = target: T20, RAF1 (Homo sapiens, UniProt P04049); settings: 500 nM; relative to DMSO; read-out: Residual enzymatic activity
T20 construct: purchased Reaction Biology Corporation
In short: as §1

RSK4 = target: T21, RSK4 (Homo sapiens, UniProt Q9UK32); settings: 500 nM; relative to DMSO; read-out: Residual enzymatic activity
T21 construct: purchased Reaction Biology Corporation
In short: as §1

SIK1 = target: T22, SIK1 (Homo sapiens, UniProt P57059); settings: for remaining activity at 0.5 µM: 500 nM, relative to DMSO, read-out: Residual enzymatic activity
T22 construct: purchased Reaction Biology Corporation (Malvern, PA, USA)
In short: as §1

SRMS = target: T23, SRMS (Homo sapiens, UniProt Q9H3Y6); settings: 500 nM; relative to DMSO; read-out: Residual enzymatic activity
T23 construct: purchased Reaction Biology Corporation
In short: as §1

SRPK2 = target: T24, SRPK2 (Homo sapiens, UniProt P78362); settings: 500 nM; relative to DMSO; read-out: Residual enzymatic activity
T24 construct: purchased Reaction Biology Corporation
In short: as §1

STK25/YSK1 = target: T25, STK25/YSK1 (Homo sapiens, UniProt O00506); settings: 500 nM; relative to DMSO; read-out: Residual enzymatic activity
T25 construct: purchased Reaction Biology Corporation
In short: as §1

STK38/NDR1 = target: T26, STK38/NDR1 (Homo sapiens, UniProt Q15208); settings: 500 nM; relative to DMSO; read-out: Residual enzymatic activity
T26 construct: purchased Reaction Biology Corporation
In short: as §1

ULK2 = target: T27, ULK2 (Homo sapiens, UniProt Q8IYT8); settings: 500 nM; relative to DMSO; read-out: Residual enzymatic activity
T27 construct: purchased Reaction Biology Corporation
In short: as §1

[1] = 10-dose mode, threefold serial dilution from 10 μM

T12 sequence (Q02750 whole entry): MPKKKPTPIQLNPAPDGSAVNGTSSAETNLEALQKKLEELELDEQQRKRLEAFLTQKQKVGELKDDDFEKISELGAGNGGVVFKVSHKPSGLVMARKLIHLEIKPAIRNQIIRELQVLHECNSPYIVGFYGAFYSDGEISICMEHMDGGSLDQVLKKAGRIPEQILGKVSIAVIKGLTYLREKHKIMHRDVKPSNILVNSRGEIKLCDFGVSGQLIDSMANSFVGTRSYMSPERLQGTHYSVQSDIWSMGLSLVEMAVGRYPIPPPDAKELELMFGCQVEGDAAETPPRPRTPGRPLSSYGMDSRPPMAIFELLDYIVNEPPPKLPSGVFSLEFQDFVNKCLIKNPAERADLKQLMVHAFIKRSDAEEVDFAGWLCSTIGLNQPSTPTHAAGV
T22 sequence (P57059 whole entry): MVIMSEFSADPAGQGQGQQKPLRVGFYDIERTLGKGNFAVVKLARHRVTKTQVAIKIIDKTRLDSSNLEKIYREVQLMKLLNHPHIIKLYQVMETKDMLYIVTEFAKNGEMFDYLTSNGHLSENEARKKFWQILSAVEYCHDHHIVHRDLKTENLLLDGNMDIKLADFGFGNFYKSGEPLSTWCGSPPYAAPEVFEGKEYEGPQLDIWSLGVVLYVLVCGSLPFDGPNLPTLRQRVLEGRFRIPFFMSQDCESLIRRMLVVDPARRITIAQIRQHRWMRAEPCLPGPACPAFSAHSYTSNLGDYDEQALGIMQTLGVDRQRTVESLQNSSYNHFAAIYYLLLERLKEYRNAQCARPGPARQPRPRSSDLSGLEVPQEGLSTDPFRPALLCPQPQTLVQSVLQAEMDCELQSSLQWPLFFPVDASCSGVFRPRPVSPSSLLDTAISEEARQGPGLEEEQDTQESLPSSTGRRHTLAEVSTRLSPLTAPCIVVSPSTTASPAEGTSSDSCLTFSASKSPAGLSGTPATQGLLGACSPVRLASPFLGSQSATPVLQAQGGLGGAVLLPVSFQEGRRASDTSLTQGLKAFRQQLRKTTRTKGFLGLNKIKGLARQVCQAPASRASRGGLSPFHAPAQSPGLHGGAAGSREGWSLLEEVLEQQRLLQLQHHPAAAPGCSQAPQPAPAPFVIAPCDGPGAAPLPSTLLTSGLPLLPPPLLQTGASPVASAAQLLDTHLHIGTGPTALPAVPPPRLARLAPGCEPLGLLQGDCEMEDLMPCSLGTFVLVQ
T10 sequence (P08631 whole entry): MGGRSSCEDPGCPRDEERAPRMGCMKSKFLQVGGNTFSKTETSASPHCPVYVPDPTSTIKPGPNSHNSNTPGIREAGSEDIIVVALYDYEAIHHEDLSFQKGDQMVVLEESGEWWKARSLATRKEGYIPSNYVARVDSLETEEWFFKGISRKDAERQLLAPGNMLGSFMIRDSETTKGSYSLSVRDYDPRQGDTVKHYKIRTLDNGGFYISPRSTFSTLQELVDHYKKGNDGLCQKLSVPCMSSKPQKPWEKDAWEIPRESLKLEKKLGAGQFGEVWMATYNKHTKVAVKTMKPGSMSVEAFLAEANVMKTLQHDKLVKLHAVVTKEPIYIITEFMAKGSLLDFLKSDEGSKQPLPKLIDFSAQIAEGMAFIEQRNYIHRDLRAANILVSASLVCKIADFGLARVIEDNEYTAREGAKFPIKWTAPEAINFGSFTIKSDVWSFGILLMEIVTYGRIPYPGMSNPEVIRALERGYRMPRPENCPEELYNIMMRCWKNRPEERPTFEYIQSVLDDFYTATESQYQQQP
T11 sequence (P53667 whole entry): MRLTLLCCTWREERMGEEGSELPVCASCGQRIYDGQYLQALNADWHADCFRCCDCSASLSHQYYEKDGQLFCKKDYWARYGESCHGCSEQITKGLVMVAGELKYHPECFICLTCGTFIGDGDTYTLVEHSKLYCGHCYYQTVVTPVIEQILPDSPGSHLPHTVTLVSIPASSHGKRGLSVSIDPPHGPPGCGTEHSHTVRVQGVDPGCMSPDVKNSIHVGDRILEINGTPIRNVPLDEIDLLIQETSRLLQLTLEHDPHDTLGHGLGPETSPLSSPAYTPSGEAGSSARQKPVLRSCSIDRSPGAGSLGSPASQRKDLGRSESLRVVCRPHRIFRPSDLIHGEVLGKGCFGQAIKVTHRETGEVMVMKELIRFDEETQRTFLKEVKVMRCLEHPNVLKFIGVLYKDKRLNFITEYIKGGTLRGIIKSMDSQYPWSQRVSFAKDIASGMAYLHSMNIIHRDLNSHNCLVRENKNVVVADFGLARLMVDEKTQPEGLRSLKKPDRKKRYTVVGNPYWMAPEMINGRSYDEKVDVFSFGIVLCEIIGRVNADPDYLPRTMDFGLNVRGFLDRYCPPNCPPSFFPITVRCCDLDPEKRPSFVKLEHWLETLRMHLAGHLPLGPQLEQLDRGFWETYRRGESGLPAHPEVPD
T18 sequence (Q13976 whole entry): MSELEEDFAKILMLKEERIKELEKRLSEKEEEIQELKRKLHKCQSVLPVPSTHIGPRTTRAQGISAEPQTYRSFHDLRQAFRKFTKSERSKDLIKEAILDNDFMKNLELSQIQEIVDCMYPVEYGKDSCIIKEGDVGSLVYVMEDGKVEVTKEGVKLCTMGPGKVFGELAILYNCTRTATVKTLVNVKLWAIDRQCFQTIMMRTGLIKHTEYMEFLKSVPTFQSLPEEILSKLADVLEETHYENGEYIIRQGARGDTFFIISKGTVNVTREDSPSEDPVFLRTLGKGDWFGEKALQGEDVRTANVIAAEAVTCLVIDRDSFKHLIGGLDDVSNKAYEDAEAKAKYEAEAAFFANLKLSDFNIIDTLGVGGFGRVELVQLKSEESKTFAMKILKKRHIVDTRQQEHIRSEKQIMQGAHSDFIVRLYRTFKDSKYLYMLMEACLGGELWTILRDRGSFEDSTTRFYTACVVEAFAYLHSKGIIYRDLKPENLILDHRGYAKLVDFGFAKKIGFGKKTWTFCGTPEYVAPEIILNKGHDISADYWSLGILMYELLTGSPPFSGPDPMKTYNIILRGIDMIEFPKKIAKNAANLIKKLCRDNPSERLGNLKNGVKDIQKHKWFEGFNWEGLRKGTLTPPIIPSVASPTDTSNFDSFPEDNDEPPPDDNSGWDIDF
T15 sequence (P51957 whole entry): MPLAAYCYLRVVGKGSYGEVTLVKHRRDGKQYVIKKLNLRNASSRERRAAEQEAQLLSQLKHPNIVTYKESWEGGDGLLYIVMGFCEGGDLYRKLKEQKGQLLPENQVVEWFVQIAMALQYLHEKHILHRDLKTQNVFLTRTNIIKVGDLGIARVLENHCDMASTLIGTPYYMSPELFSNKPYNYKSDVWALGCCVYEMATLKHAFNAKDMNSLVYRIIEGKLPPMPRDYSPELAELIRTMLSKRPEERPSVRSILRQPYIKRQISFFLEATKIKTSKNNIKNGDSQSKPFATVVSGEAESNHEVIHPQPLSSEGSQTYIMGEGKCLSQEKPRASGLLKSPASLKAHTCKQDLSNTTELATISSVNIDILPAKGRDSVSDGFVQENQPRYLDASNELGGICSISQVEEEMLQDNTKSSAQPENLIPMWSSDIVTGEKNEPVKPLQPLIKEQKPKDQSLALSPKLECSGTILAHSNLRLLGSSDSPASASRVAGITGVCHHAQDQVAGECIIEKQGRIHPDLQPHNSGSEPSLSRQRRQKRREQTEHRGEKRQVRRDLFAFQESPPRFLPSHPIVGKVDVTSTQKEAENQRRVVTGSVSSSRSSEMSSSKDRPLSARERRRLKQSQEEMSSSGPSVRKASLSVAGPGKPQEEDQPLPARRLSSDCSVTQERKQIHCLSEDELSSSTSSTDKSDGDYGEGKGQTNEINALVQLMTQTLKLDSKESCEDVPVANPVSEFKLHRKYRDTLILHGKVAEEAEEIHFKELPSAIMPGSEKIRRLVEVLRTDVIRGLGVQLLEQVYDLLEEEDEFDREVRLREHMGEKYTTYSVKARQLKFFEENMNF
T25 sequence (O00506 whole entry): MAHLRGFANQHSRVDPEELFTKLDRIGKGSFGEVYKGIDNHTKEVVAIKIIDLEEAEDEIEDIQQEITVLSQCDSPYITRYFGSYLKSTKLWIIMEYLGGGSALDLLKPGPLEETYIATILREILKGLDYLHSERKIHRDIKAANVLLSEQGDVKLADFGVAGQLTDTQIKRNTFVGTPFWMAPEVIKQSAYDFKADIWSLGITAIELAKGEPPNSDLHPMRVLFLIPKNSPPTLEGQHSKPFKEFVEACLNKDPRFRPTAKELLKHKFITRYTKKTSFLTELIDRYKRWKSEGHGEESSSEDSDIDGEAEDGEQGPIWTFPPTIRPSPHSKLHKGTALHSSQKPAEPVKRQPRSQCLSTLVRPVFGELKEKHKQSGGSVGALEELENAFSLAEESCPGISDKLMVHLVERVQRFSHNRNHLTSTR

SMILES | remaining activity at 0.5 µM (ALK5/TGFBR1) [%] | remaining activity at 0.5 µM (Aurora C) [%] | remaining activity at 0.5 µM (BTK) [%] | remaining activity at 0.5 µM (CDC7/DBF4) [%] | remaining activity at 0.5 µM (CK1g1) [%] | remaining activity at 0.5 µM (DRAK1/STK17A) [%] | remaining activity at 0.5 µM (DYRK3) [%] | remaining activity at 0.5 µM (FLT3) [%] | remaining activity at 0.5 µM (HCK) [%] | remaining activity at 0.5 µM (LIMK1) [%] | remaining activity at 0.5 µM (MEK1) [%] | remaining activity at 0.5 µM (MEKK3) [%] | remaining activity at 0.5 µM (MKK4) [%] | remaining activity at 0.5 µM (NEK4) [%] | remaining activity at 0.5 µM (P38b/MAPK11) [%] | remaining activity at 0.5 µM (PKCa) [%] | remaining activity at 0.5 µM (PKG1a) [%] | remaining activity at 0.5 µM (PRKX) [%] | remaining activity at 0.5 µM (RAF1) [%] | remaining activity at 0.5 µM (RSK4) [%] | also measured
COc1cc(Nc2ncc(F)c(Nc3ccc4c(n3)NC(=O)C(C)(C)O4)n2)cc(OC)c1OC [R406, reference compound] | 108 | 42.1 | 28.8 | 82.6 | 92.7 | 43.3 | 90.6 | 6.2 | 15.4 | 7.2 | 87.2 | 76.1 | 102 | 52.1 | 101 | 58.3 | 85.4 | 104 | 73.3 | 45.6 | remaining activity at 0.5 µM (EPHB2; read-out: Residual enzymatic activity): 69.5%; remaining activity at 0.5 µM (SIK1): 7.2%; remaining activity at 0.5 µM (SRMS): 101%; remaining activity at 0.5 µM (SRPK2): 104%; remaining activity at 0.5 µM (STK25/YSK1): 90.7%; remaining activity at 0.5 µM (STK38/NDR1): 70.4%; remaining activity at 0.5 µM (ULK2): 37.9%
COc1cc(Nc2ncnc(Nc3cc4c(cn3)NC(=O)C(C)(C)O4)n2)cc(OC)c1OC [MT-SYK-03] | 104 | 89.2 | 51.3 | 102 | 93.5 | 93.6 | 91.6 | 5.7 | 26.3 | 11.4 | 107 | 116 | 99.8 | 109 | 103 | 92.3 | 94.8 | 115 | 91.5 | 99.7 | Residual enzymatic activity (EPHB2): 77.7%; IC50 (FLT3; [1]): 23 nM; IC50 (HCK; [1]): 53.7 nM; IC50 (LIMK1; [1]): 45 nM and 44.6 nM; Residual enzymatic activity (MEK1): did not inhibit any; remaining activity at 0.5 µM (SIK1): 10.1%; IC50 (SIK1; [1]): 36 nM and 35.9 nM; remaining activity at 0.5 µM (SRMS): 99.7%; remaining activity at 0.5 µM (SRPK2): 104%; remaining activity at 0.5 µM (STK25/YSK1): 105%; remaining activity at 0.5 µM (STK38/NDR1): 112%; remaining activity at 0.5 µM (ULK2): 111%
